ChEMBL document CHEMBL1201862, “PubChem BioAssay data set” (2004)
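Compound exposure: 48 hours, 5 concentrations, 96-well plates. Here, GI50 denotes the concentration required for 50% inhibition of growth.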 The source made the active and inactive calls. Cut-off read from the data, not from the text of the source: active = GI50 up to about 1.1 µM and inactive = higher.

What was measured:
Assay in all cases: NCI tumour cell line growth inhibition, 48 h
UACC-62 = test system: UACC-62
NCI/ADR-RES = test system: NCI/ADR-RES
MOLT-4 = test system: MOLT-4
SF-295 = test system: SF-295
SK-MEL-2 = test system: SK-MEL-2
A549 = test system: A549
Malme-3M = test system: Malme-3M
UACC-257 = test system: UACC-257
HOP-92 = test system: HOP-92
HOP-62 = test system: HOP-62
LOX IMVI = test system: LOX IMVI
786-0 = test system: 786-0
TK-10 = test system: TK-10
KM12 = test system: KM12
HCC 2998 = test system: HCC 2998
RXF 393 = test system: RXF 393
A498 = test system: A498
MDA-MB-435 = test system: MDA-MB-435
MDA-N = test system: MDA-N
SW-620 = test system: SW-620

Measured: GI50

Cc1ccc(Cc2n[nH]c(=O)n2/N=C\CC/C=N\n2c(Cc3ccc(C)cc3)n[nH]c2=O)cc1
inactive: UACC-62 25.8 µM | NCI/ADR-RES 21.1 µM | MOLT-4 19.1 µM | SF-295 29.9 µM | SK-MEL-2 28 µM | A549 > 100 µM | Malme-3M 33.2 µM | UACC-257 57.4 µM | HOP-92 25.1 µM | HOP-62 6.37 µM | LOX IMVI 16.9 µM | 786-0 18.5 µM | TK-10 > 100 µM | KM12 > 100 µM | HCC 2998 > 100 µM | RXF 393 20.9 µM | A498 90.4 µM | MDA-MB-435 36.3 µM | MDA-N 37.1 µM | SW-620 43 µM

N#C/C(=C\c1c[nH]c2ccccc12)C(=O)c1ccc(O)c(O)c1
inactive: UACC-62 28.8 µM | NCI/ADR-RES 20.5 µM | MOLT-4 12.4 µM | SF-295 14.6 µM | SK-MEL-2 > 36.7 µM | A549 26.1 µM | Malme-3M > 47.9 µM | UACC-257 50.7 µM | HOP-92 32.1 µM | HOP-62 19.2 µM | LOX IMVI 23.7 µM | 786-0 22.8 µM | TK-10 51.2 µM | KM12 27.7 µM | HCC 2998 32.5 µM | RXF 393 38.9 µM | A498 41.6 µM | MDA-MB-435 20.8 µM | MDA-N 47.1 µM | SW-620 32.7 µM

CC(C)=CCC[C@@H](C)c1c2ncc[nH]c-2c(C)c(=O)c1O
inactive: UACC-62 18.7 µM | NCI/ADR-RES 4.49 µM | MOLT-4 10.4 µM | SF-295 16.5 µM | SK-MEL-2 18.6 µM | A549 22.1 µM | Malme-3M 13.8 µM | UACC-257 31.9 µM | HOP-92 23.8 µM | HOP-62 19.2 µM | LOX IMVI 25.1 µM | 786-0 39.4 µM | TK-10 31.1 µM | KM12 10.6 µM | HCC 2998 31.9 µM | RXF 393 24.6 µM | A498 30 µM | MDA-MB-435 41.9 µM | MDA-N 37.8 µM | SW-620 33.1 µM
